# Source: patent US10125126B2, “N-cycloalkyl-N-[(heterocyclylphenyl)methylene]-(thio)carboxamide derivatives” (BAYER CROPSCIENCE AG, priority 2012, dated 2018)
# Assay: log P by HPLC on a reversed-phase column (C 18), EEC Directive 79/831 Annex V.A8
# Format: physicochemical
# Settings: HPLC on reversed-phase column (C 18), 40° C., 0.1% aqueous formic acid and acetonitrile, linear gradient 10% to 90% acetonitrile
# Procedure: In table 1, the log P values were determined in accordance with EEC Directive 79/831 Annex V.A8 by HPLC (High Performance Liquid Chromatography) on a reversed-phase column (C 18), using the method described below: Temperature: 40° C.; Mobile phases: 0.1% aqueous formic acid and acetonitrile; linear gradient from 10% acetonitrile to 90% acetonitrile. Calibration was carried out using unbranched alkan-2-ones (comprising 3 to 16 carbon atoms) with known log P values (determination of the log P values by the retention times using linear interpolation between two successive alkanones). lambda-max-values were determined using UV-spectra from 200 nm to 400 nm and the peak values of the chromatographic signals.
row,SMILES,logP
1,Cn1nc(C(F)F)c(C(=O)N(Cc2ccccc2C2COC2)C2CC2)c1Cl [I.2],1.56
2,Cn1nc(C(F)F)c(C(=O)N(Cc2c(C3(C)CO3)ccc(Cl)c2Cl)C2CC2)c1F (stereo not drawn) [I.9],3.55
3,Cn1nc(C(F)F)c(C(=O)N(Cc2c(C3(C)CO3)ccc(Cl)c2F)C2CC2)c1Cl (stereo not drawn) [I.10],3.37
4,Cn1nc(C(F)F)c(C(=O)N(Cc2c(C3(C)CO3)ccc(Cl)c2Cl)C2CC2)c1Cl (stereo not drawn) [I.11],3.67
5,Cc1ccc(C2(C)CO2)c(CN(C(=O)c2c(C(F)F)nn(C)c2F)C2CC2)c1F (stereo not drawn) [I.12],3.17
6,Cn1nc(C(F)F)c(C(=O)N(Cc2c(C3(C)CO3)ccc(Cl)c2F)C2CC2)c1F (stereo not drawn) [I.13],3.29
7,Cn1nc(C(F)F)c(C(=O)N(Cc2cc(C34CCCC3O4)ccc2Cl)C2CC2)c1F (stereo not drawn) [I.17],3.59
8,Cn1nc(C(F)F)c(C(=O)N(Cc2cc(Cl)ccc2C23CCCC2O3)C2CC2)c1F (stereo not drawn) [I.18],3.60
9,Cn1nc(C(F)F)c(C(=O)N(Cc2ccccc2C23CCCC2O3)C2CC2)c1F (stereo not drawn) [I.19],3.12
10,Cn1nc(C(F)F)c(C(=O)N(Cc2ccccc2C2(C)OCCO2)C2CC2)c1F [I.20],2.94
11,Cn1nc(C(F)F)c(C(=O)N(Cc2cc(C34CCCCC3O4)ccc2Cl)C2CC2)c1F (stereo not drawn) [I.22],3.99
12,Cn1nc(C(F)F)c(C(=O)N(Cc2cc(Cl)ccc2C23CCCCC2O3)C2CC2)c1F (stereo not drawn) [I.23],3.99
13,Cn1nc(C(F)F)c(C(=O)N(Cc2ccccc2C23CCCCC2O3)C2CC2)c1F (stereo not drawn) [I.24],3.48
14,Cn1nc(C(F)F)c(C(=O)N(Cc2cc(Cl)ccc2C23CCCCCC2O3)C2CC2)c1F (stereo not drawn) [I.25],4.44
15,Cn1nc(C(F)F)c(C(=O)N(Cc2ccccc2C23CCCCCC2O3)C2CC2)c1F (stereo not drawn) [I.26],3.94
16,O=C(c1ccsc1I)N(Cc1ccccc1-c1ccco1)C1CC1 [I.33],4.01
17,O=C(c1ccsc1I)N(Cc1cc(-c2ccco2)ccc1Cl)C1CC1 [I.41],4.61

row,SMILES,logP
1,Cn1cc(C(=O)N(Cc2ccccc2-c2ccco2)C2CC2)c(C(F)F)c1 [I.42],3.44
2,Cn1nc(C(F)F)c(C(=S)N(Cc2ccccc2-c2ccsc2)C2CC2)c1Cl [I.80],4.39
3,Cn1nc(C(F)F)c(C(=S)N(Cc2ccccc2-c2cccs2)C2CC2)c1Cl [I.81],4.49
4,O=C(c1ccsc1I)N(Cc1cc(-c2ccsc2)ccc1Cl)C1CC1 [I.89],4.78
5,Cn1cc(C(=O)N(Cc2cc(-c3cccs3)ccc2Cl)C2CC2)c(C(F)F)c1 [I.90],4.16
6,O=C(c1ccsc1I)N(Cc1cc(-c2cccs2)ccc1Cl)C1CC1 [I.91],4.91
7,Cc1nc(C(F)F)c(C(=O)N(Cc2cc(-c3cccs3)ccc2Cl)C2CC2)s1 [I.97],4.26
8,Cc1cc(C(=O)N(Cc2cc(-c3ccsc3)ccc2Cl)C2CC2)c(C)o1 [I.98],4.59
9,Cc1cc(C(=O)N(Cc2cc(-c3cccs3)ccc2Cl)C2CC2)c(C)o1 [I.99],4.72
10,Cc1nn(C)c(C)c1-c1ccc(C(C)C)c(CN(C(=O)c2c(C(F)F)nn(C)c2F)C2CC2)c1 [I.118],3.23
11,Cn1nc(C(F)F)c(C(=S)N(Cc2ccccc2-c2ccc(Cl)s2)C2CC2)c1Cl [I.142],5.19
12,O=C(c1ccsc1I)N(Cc1cc(Cl)ccc1-c1ccc(Cl)s1)C1CC1 [I.147],5.68
13,Cc1nc(C(F)F)c(C(=O)N(Cc2cc(-c3ccc(Cl)s3)ccc2Cl)C2CC2)s1 [I.151],5.00
14,Cc1cc(C(=O)N(Cc2cc(-c3ccc(Cl)s3)ccc2Cl)C2CC2)c(C)o1 [I.152],5.54
15,CC(C)c1ccc(-c2cn(C)c3ccccc23)cc1CN(C(=O)c1c(C(F)F)nn(C)c1F)C1CC1 [I.153],4.74
16,Cn1nc(C(F)F)c(C(=O)N(Cc2ccccc2OC2CCOCC2)C2CC2)c1F [I.169],2.80
17,CC(c1ccccc1Cc1ccc(Cl)cn1)N(C(=O)c1c(C(F)F)nn(C)c1F)C1CC1 (stereo not drawn) [I.171],3.68

# The remaining lines, values ahead:
row,logP,SMILES
1,2.66,Cc1ccc(-c2cnn(C)c2)c(CN(C(=O)c2cn(C)nc2C(F)F)[C@@H]2C[C@H]2C)c1 (relative stereo) [I.62]
2,2.82,Cc1ccc(-c2cnn(C)c2)c(CN(C(=O)c2c(C(F)F)nn(C)c2F)[C@@H]2C[C@H]2C)c1 (relative stereo) [I.63]
3,2.86,Cc1ccc(-c2cnn(C)c2)c(CN(C(=O)c2c(C(F)F)nn(C)c2Cl)[C@@H]2C[C@H]2C)c1 (relative stereo) [I.64]
4,3.25,Cc1ccc(CN(C(=O)c2c(C(F)F)nn(C)c2F)C2CC2)c(C2(C)OCCO2)c1 [I.21]
5,3.46,Cn1nc(C(F)F)c(C(=O)N(Cc2ccccc2-c2ccco2)C2CC2)c1Cl [I.30]
6,3.19,Cc1ccc(-c2ccoc2)c(CN(C(=O)c2cn(C)nc2C(F)F)C2CC2)c1 [I.38]
7,3.99,Cc1nc(C(F)F)c(C(=O)N(Cc2cc(-c3ccco3)ccc2Cl)C2CC2)s1 [I.46]
8,3.55,Cc1ccc(-c2ccn(C)c2)c(CN(C(=O)c2c(C(F)F)nn(C)c2F)C2CC2)c1 [I.51]
9,3.19,Cc1ccc(-c2ccn(C)c2)c(CN(C(=O)c2cn(C)nc2C(F)F)C2CC2)c1 [I.52]
10,3.69,Cc1ccc(-c2ccn(C)c2)c(CN(C(=O)c2c(C(F)F)nn(C)c2Cl)C2CC2)c1 [I.53]
11,3.13,CC(C)c1ccc(-c2cnn(C)c2)cc1CN(C(=O)c1c(C(F)F)nn(C)c1F)C1CC1 [I.65]
12,4.29,Cn1nc(C(F)F)c(C(=O)N(Cc2cc(-c3cccs3)ccc2Cl)C2CC2)c1Cl [I.85]
13,4.06,Cn1cc(C(=O)N(Cc2cc(-c3ccsc3)ccc2Cl)C2CC2)c(C(F)F)c1 [I.92]
14,4.16,Cn1nc(C(F)F)c(C(=O)N(Cc2cc(-c3ccsc3)ccc2Cl)C2CC2)c1Cl [I.94]
15,4.14,Cc1nc(C(F)F)c(C(=O)N(Cc2cc(-c3ccsc3)ccc2Cl)C2CC2)s1 [I.96]
16,4.41,Cc1ccc(-c2cscc2C)c(CN(C(=O)c2c(C(F)F)nn(C)c2Cl)C2CC2)c1 [I.107]
17,3.83,Cc1ccc(-c2cscc2C)c(CN(C(=O)c2cn(C)nc2C(F)F)C2CC2)c1 [I.109]
18,4.72,Cc1cscc1-c1ccc(C(C)C)c(CN(C(=O)c2c(C(F)F)nn(C)c2F)C2CC2)c1 [I.110]

row,logP,SMILES
1,2.71,Cc1ccc(-c2c(C)nn(C)c2C)c(CN(C(=O)c2c(C(F)F)nn(C)c2F)C2CC2)c1 [I.115]
2,2.45,Cc1ccc(-c2c(C)nn(C)c2C)c(CN(C(=O)c2cn(C)nc2C(F)F)C2CC2)c1 [I.116]
3,2.80,Cc1ccc(-c2c(C)nn(C)c2C)c(CN(C(=O)c2c(C(F)F)nn(C)c2Cl)C2CC2)c1 [I.117]
4,3.46,COc1ccsc1-c1ccc(C)cc1CN(C(=O)c1cn(C)nc1C(F)F)C1CC1 [I.124]
5,3.99,COc1ccsc1-c1ccc(C)cc1CN(C(=O)c1c(C(F)F)nn(C)c1Cl)C1CC1 [I.126]
6,4.21,COc1ccsc1-c1ccc(C)cc1CN(C(=O)c1c(C(F)F)nn(C)c1F)C1CC1C (stereo not drawn) [I.127]
7,4.41,COc1ccsc1-c1ccc(C)cc1CN(C(=O)c1c(C(F)F)nn(C)c1Cl)C1CC1C (stereo not drawn) [I.128]
8,4.49,Cc1ccc(-c2coc3ccccc23)c(CN(C(=O)c2c(C(F)F)nn(C)c2Cl)C2CC2)c1 [I.133]
9,3.89,Cc1ccc(-c2coc3ccccc23)c(CN(C(=O)c2cn(C)nc2C(F)F)C2CC2)c1 [I.135]
10,4.44,Cc1ccc(-c2ccsc2Cl)c(CN(C(=O)c2c(C(F)F)nn(C)c2Cl)C2CC2)c1 [I.148]
11,3.85,Cc1ccc(-c2ccsc2Cl)c(CN(C(=O)c2cn(C)nc2C(F)F)C2CC2)c1 [I.149]
12,4.15,Cc1ccc(-c2csc3ccccc23)c(CN(C(=O)c2cn(C)nc2C(F)F)C2CC2)c1 [I.161]
13,4.83,Cc1ccc(-c2csc3ccccc23)c(CN(C(=O)c2c(C(F)F)nn(C)c2Cl)C2CC2)c1 [I.162]
14,4.98,Cc1ccc(-c2csc3ccccc23)c(CN(C(=O)c2c(C(F)F)nn(C)c2F)C2CC2C)c1 (stereo not drawn) [I.163]
15,5.19,Cc1ccc(-c2csc3ccccc23)c(CN(C(=O)c2c(C(F)F)nn(C)c2Cl)C2CC2C)c1 (stereo not drawn) [I.164]
16,4.46,Cc1ccc(-c2csc3ccccc23)c(CN(C(=O)c2cn(C)nc2C(F)F)C2CC2C)c1 (stereo not drawn) [I.165]
17,4.92,Cc1ccc(-c2csc3ccccc23)c(CN(C(=O)c2c(C(F)F)nn(C)c2F)C2CC2C)c1 (stereo not drawn) [I.166]
18,5.05,Cc1ccc(-c2csc3ccccc23)c(CN(C(=O)c2c(C(F)F)nn(C)c2Cl)C2CC2C)c1 (stereo not drawn) [I.167]

# Same assay, conditions: HPLC, C 18, 40° C., 0.1% aqueous formic acid and acetonitrile
row,logP,SMILES
1,3.17,CC(C)c1ccc(Cl)cc1C=NO [1-(5-chloro-2-isopropylphenyl)-N-hydroxymethanimine]

# Same assay, conditions: reversed-phase HPLC column (C 18), HPLC, C 18, 40° C., 0.1% aqueous formic acid and acetonitrile; read-out: logP
row,chromatographic logP,SMILES
1,2.9,CC(C)c1ccc(Cl)cc1C=NO [1-(5-chloro-2-isopropylphenyl)-N-hydroxymethanimine]
2,1.2,CC(C)c1ccc(Cl)cc1CN [1-(5-chloro-2-isopropylphenyl)methanamine]
3,0.99,"Clc1ccc(-c2ccco2)c(CNC2CC2)c1 [IIa.1, N-[5-chloro-2-(2-furyl)benzyl]cyclopropanamine]"
4,1.1,"Clc1ccc(-c2cccs2)c(CNC2CC2)c1 [IIa.2, N-[5-chloro-2-(2-thienyl)benzyl]cyclopropanamine]"
5,1.34,"c1ccc(-c2ccsc2)c(CNC2CC2)c1 [IIa.3, N-[2-(3-thienyl)benzyl]cyclopropanamine]"
6,1.42,"CC(NC1CC1)c1ccccc1-c1ccsc1 (stereo not drawn) [IIa.4, N-{1-[2-(3-thienyl)phenyl]ethyl}cyclopropanamine]"
7,1.12,"Clc1ccc(-c2ccsc2)c(CNC2CC2)c1 [IIa.5, N-[5-chloro-2-(3-thienyl)benzyl]cyclopropanamine]"
